Laboratory results as given in patent publication US10239887B2, “Positive allosteric modulators of the muscarinic acetylcholine receptor M4” (Vanderbilt University, priority 2016, dated 2019).
Where a name gives a salt, the structure may show the parent alone. Read-outs that look alike come from different tables or passages of the source.

Biological target: T1, human mAChR M4 (Homo sapiens, UniProt P08173)
T1 sequence (P08173 1-479): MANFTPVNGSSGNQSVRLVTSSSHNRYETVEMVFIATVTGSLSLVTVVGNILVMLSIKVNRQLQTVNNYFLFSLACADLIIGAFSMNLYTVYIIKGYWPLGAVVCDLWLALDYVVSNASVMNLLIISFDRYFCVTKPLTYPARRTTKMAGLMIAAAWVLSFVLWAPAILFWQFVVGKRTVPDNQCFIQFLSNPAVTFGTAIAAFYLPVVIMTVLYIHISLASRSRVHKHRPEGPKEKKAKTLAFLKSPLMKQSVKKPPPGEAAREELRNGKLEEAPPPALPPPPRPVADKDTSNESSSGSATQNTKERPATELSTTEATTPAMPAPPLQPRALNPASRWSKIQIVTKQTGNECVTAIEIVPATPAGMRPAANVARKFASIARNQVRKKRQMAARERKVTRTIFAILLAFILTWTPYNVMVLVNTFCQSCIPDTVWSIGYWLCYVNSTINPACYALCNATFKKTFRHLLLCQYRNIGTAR
Test: mAChR M4 cell-based functional assay (calcium flux), human M4
Conditions: for EC50: Human M4 EC50 (nM)

[1] = Table 10, calcium flux, PAM activity with EC20 acetylcholine
[2] = Table 10, % ACh maximum at 30 μM

Cc1nnc2sc3c(N4CC(Nc5ncccc5C#N)C4)ncnc3c2c1C [Compound 141, 2-((1-(3,4-dimethylpyrimido [4′,5′:4,5]thieno[2,3-c]pyridazin-8-yl)azetidin-3-yl)amino) nicotinonitrile 2,2,2-trifluoroacetate]
EC50 [1]: 590 nM | Emax [2]: 66.4%

Cc1nnc2sc3c(N4Cc5ccc(C(C)(C)O)cc5C4)ncnc3c2c1C [Compound 142, 2-[2-(3,4-dimethylpyrimido [4′,5′:4,5]thieno[2,3-c]pyridazin-8-yl)isoindolin-5-yl]propan-2-ol; 2,2,2-trifluoroacetic acid]
EC50 [1]: 1250 nM | Emax [2]: 53.6%

Cc1nnc2sc3c(NCc4ccc(C(C)(O)C5CC5)cc4)ncnc3c2c1C (centres unmarked) [Compound 143, 1-cyclopropyl-1-[4-[[(3,4-dimethylpyrimido [4′,5′:4,5]thieno[2,3-c]pyridazin-8-yl)amino]methyl]phenyl]ethanol]
EC50 [1]: 779 nM | Emax [2]: 61.3%

CCC(O)(CC)c1ccc(CNc2ncnc3c2sc2nnc(C)c(C)c23)cc1 [Compound 144, 3-[4-[[(3,4-dimethylpyrimido [4′,5′:4,5]thieno[2,3-c]pyridazin-8-yl)amino]methyl]phenyl]pentan-3-ol]
EC50 [1]: 986 nM | Emax [2]: 78.3%

CNC(=O)c1ccc(CNc2ncnc3c2sc2nnc(C)c(C)c23)cc1 [Compound 145, 4-[[(3,4-dimethylpyrimido [4′,5′:4,5]thieno[2,3-c]pyridazin-8-yl)amino]methyl]-N-methyl-benzamide]
EC50 [1]: 101 nM | Emax [2]: 82.1%

Cc1nnc2sc3c(NCc4ccc(C(F)(F)F)nc4)ncnc3c2c1C [Compound 146, 3,4-dimethyl-N-[[6-(trifluoromethyl)-3-pyridyl]methyl]pyrimido [4′,5′:4,5]thieno[2,3-c] pyridazin-8-amine hydrochloride]
EC50 [1]: 828 nM | Emax [2]: 97.7%

Cc1cc(C)c(CNc2ncnc3c2sc2nnc(C)c(C)c23)cn1 [Compound 147, N-[(4,6-dimethyl-3-pyridyl)methyl]-3,4-dimethyl-pyrimido [4′,5′:4,5]thieno[2,3-c] pyridazin-8-amine hydrochloride]
Emax: 85.8% | EC50 [1]: 429 nM

Cc1cc(CNc2ncnc3c2sc2nnc(C)c(C)c23)cnc1C [Compound 148, N-[(5,6-dimethyl-3-pyridyl)methyl]-3,4-dimethyl-pyrimido [4′,5′:4,5]thieno[2,3-c] pyridazin-8-amine hydrochloride]
Emax: 84% | EC50 [1]: 522 nM

Cc1nnc2sc3c(NCc4ccc(C(=O)NC5(C)CC5)cc4)ncnc3c2c1C [Compound 149, 4-[[(3,4-dimethylpyrimido [4′,5′:4,5]thieno[2,3-c]pyridazin-8-yl)amino]methyl]-N-(1-methylcyclopropyl) benzamide]
EC50 [1]: 156 nM | Emax [2]: 78.3%

Cc1nnc2sc3c(NCc4ccc(C(=O)NC5CCC5)cc4)ncnc3c2c1C [Compound 150, N-cyclobutyl-4-[[(3,4-dimethylpyrimido [4′,5′:4,5]thieno[2,3-c]pyridazin-8-yl)amino]methyl]benzamide]
EC50 [1]: 105 nM | Emax [2]: 74.9%

Cc1nnc2sc3c(NCc4ccc(C(=O)NC5CC(F)C5)cc4)ncnc3c2c1C (centres unmarked) [Compound 151, 4-[[(3,4-dimethylpyrimido [4′,5′:4,5]thieno[2,3-c]pyridazin-8-yl)amino]methyl]-N-(3-fluorocyclobutyl) benzamide]
EC50 [1]: 27.7 nM | Emax [2]: 87.4%

Cc1nnc2sc3c(NCc4ccc(C(=O)NC5CC(F)(F)C5)cc4)ncnc3c2c1C [Compound 152, N-(3,3-difluorocyclobutyl)-4-[[(3,4-dimethylpyrimido [4′,5′:4,5]thieno[2,3-c]pyridazin-8-yl)amino]methyl]benzamide]
EC50 [1]: 59.2 nM | Emax [2]: 86.9%

Cc1nnc2sc3c(NCc4ccc(C(=O)NC5CCCC5)cc4)ncnc3c2c1C [Compound 153, N-cyclopentyl-4-[[(3,4-dimethylpyrimido [4′,5′:4,5]thieno[2,3-c]pyridazin-8-yl)amino]methyl]benzamide]
EC50 [1]: 114 nM | Emax [2]: 87.4%

Cc1nnc2sc3c(NCc4ccc(C(=O)NC5CC6(COC6)C5)cc4)ncnc3c2c1C [Compound 154, 4-[[(3,4-dimethylpyrimido [4′,5′:4,5]thieno[2,3-c]pyridazin-8-yl)amino]methyl]-N-(2-oxaspiro [3.3]heptan-6-yl)benzamide]
EC50 [1]: 109 nM | Emax [2]: 87.2%

Cc1nnc2sc3c(NCc4ccc(C(=O)NC(C)C)cc4)ncnc3c2c1C [Compound 155, 4-[[(3,4-dimethylpyrimido [4′,5′:4,5]thieno[2,3-c]pyridazin-8-yl)amino]methyl]-N-isopropyl-benzamide]
EC50 [1]: 174 nM | Emax [2]: 88.1%

Cc1nnc2sc3c(NCc4ccc(C(=O)N5CC(F)(F)C5)cc4)ncnc3c2c1C [Compound 156, (3,3-difluoroazetidin-1-yl)-[4-[[(3,4-dimethlpyrimido [4′,5′:4,5]thieno[2,3-c]pyridazin-8-yl)amino]methyl]phenyl]methanone]
EC50 [1]: 590 nM | Emax [2]: 84.9%

Cc1nnc2sc3c(NCc4ccc(C(=O)N[C@H](C)C(F)(F)F)cc4)ncnc3c2c1C [Compound 157, 4-[[(3,4-dimethylpyrimido [4′,5′:4,5]thieno[2,3-c]pyridazin-8-yl)amino]methyl]-N-[(1R)-2,2,2-trifluoro-1-methyl-ethyl]benzamide]
EC50 [1]: 244 nM | Emax [2]: 86.1%

Cc1nnc2sc3c(NCc4ccc(C(=O)NC(C)C(C)(C)CO)cc4)ncnc3c2c1C (centres unmarked) [Compound 158, 4-[[(3,4-dimethylpyrimido [4′,5′:4,5]thieno[2,3-c]pyridazin-8-yl)amino]methyl]-N-(3-hydroxy-1,2,2-trimethyl-propyl) benzamide]
EC50 [1]: 220 nM | Emax [2]: 85%

Cc1nnc2sc3c(NCc4ccc(C(=O)NC5CCCCC5)cc4)ncnc3c2c1C [Compound 159, N-cyclohexyl-4-[[(3,4-dimethylpyrimido [4′,5′:4,5]thieno[2,3-c]pyridazin-8-yl)amino]methyl]benzamide]
EC50 [1]: 380 nM | Emax [2]: 84.8%

Cc1nnc2sc3c(NCc4ccc(C(=O)NC5CCC(C)(C)CC5)cc4)ncnc3c2c1C [Compound 160, N-(4,4-dimethylcyclohexyl)-4-[[(3,4-dimethylpyrimido [4′,5′:4,5]thieno[2,3-c]pyridazin-8-yl)amino]methyl]benzamide]
EC50 [1]: 980 nM | Emax [2]: 86%

Cc1nnc2sc3c(N4CC(Nc5ccnc(F)c5F)C4)ncnc3c2c1C [Compound 161, N-[1-(3,4-dimethylpyrimido[4′,5′:4,5]thieno[2,3-c]pyridazin-8-yl)azetidin-3-yl]-2,3-difluoro-pyridin-4-amine; 2,2,2-trifluoroacetic acid]
EC50 [1]: 84.3 nM | Emax [2]: 80.1%

Cc1nnc2sc3c(NC4CC5(C4)CN(c4ncc(Cl)cc4Cl)C5)ncnc3c2c1C [Compound 162, N-[2-(3,5-dichloro-2-pyridyl)-2-azaspiro[3.3]heptan-6-yl]-3,4-dimethyl-pyrimido[4′,5′:4,5]thieno [2,3-c]pyridazin-8-amine]
EC50 [1]: 5630 nM | Emax [2]: 48.3%

Cc1nnc2sc3c(NC4CC5(C4)CN(c4ncc(F)cc4Cl)C5)ncnc3c2c1C [Compound 163, N-[2-(3-chloro-5-fluoro-2-pyridyl)-2-azaspiro [3.3]heptan-6-yl]-3,4-dimethyl-pyrimido [4′,5′:4,5]thieno[2,3-c] pyridazin-8-amine]
EC50 [1]: 1440 nM | Emax [2]: 42.9%

Cc1nnc2sc3c(NC4CC5(C4)CN(c4ncc(Cl)cc4F)C5)ncnc3c2c1C [Compound 164, N-[2-(5-chloro-3-fluoro-2-pyridyl)-2-azaspiro [3.3]heptan-6-yl]-3,4-dimethyl-pyrimido [4′,5′:4,5]thieno[2,3-c] pyridazin-8-amine]
EC50 [1]: 3500 nM | Emax [2]: 22.7%

Cc1cnc(N2CC3(CC(Nc4ncnc5c4sc4nnc(C)c(C)c45)C3)C2)nc1 [Compound 165, 3,4-dimethyl-N-[2-(5-methylpyrimidin-2-yl)-2-azaspiro[3.3]heptan-6-yl]pyrimido [4′,5′:4,5]thieno[2,3-c] pyridazin-8-amine]
EC50 [1]: 2410 nM | Emax [2]: 31.6%

Cc1ncc(CN2CC3(CC(Nc4ncnc5c4sc4nnc(C)c(C)c45)C3)C2)cn1 [Compound 166, 3,4-dimethyl-N-[2-[(2-methylpyrimidin-5-yl)methyl]-2-azaspiro [3.3]heptan-6-yl]pyrimido [4′,5′:4,5]thieno[2,3-c] pyridazin-8-amine]
EC50 [1]: 1210 nM | Emax [2]: 34.7%

Cc1nnc2sc3c(NC4CC5(C4)CN(C(=O)CC(F)(F)F)C5)ncnc3c2c1C [Compound 168, 1-[6-[(3,4-dimethylpyrimido [4′,5′:4,5]thieno[2,3-c]pyridazin-8-yl)amino]-2-azaspiro[3.3]heptan-2-yl]-3,3,3-trifluoro-propan-1-one]
EC50 [1]: 3970 nM | Emax [2]: 29%

Cc1nnc2sc3c(NC4CC5(C4)CN(C(=O)C4CCOCC4)C5)ncnc3c2c1C [Compound 169, [6-[(3,4-dimethylpyrimido[4′,5′:4,5]thieno[2,3-c]pyridazin-8-yl)amino]-2-azaspiro[3.3]heptan-2-yl]-tetrahydropyran-4-yl-methanone]
EC50 (Table 10, unit μM (bounds)): > 10000 nM | Emax [2]: 34.9%
